Experimental findings from patent US5886156A, “Synthetic peptide lung surfactants having covalently bonded antioxidants” (Merrell Pharmaceuticals Inc., priority 1996, dated 1999) are described below.

This test relates to surfactant-deficient lavaged rat lungs. Nature of the test: Isolated rat lavaged lung model (adult rat lung model), pressure-volume curve. Set-up: species or system rat (male Sprague Dawley). The conditions noted are these: for PC5 (% TLC): per cent of total lung capacity at 5 cm H2O pressure, deflation limb of P-V curve / PC10 (% TLC): per cent of total lung capacity at 10 cm H2O pressure, deflation limb of P-V curve: peptide-DPPC mixture (or DPPC alone) instilled into lavaged excised rat lungs, 25 mg phospholipid, 100-125 mg/kg, 37° C.; for RESTORATION % (per cent restoration based on PC5 values): relative to surfactant-sufficient (100) and surfactant-deficient (0) lungs, peptide-DPPC mixture or DPPC alone. The text has this:
Methods of testing the synthetic surfactant preparations for efficacy are well known in the art. For example, the synthetic surfactant preparations of the present invention can be tested in any appropriate manner such as in the adult rat lung model (Ikegami, et al., (1979) Pediatr. Res. 13, 777-780). Pressure-volume characteristics of surfactant-depleted rat lungs are similar to those of lungs of infants with hyaline membrane disease and restoration of the pressure-volume relationship of the lung to normal is related to the amount of surfactant instilled in a dose dependent manner. (Bermel, M. S., et al., […] excised rat lungs as a model of surfactant deficiency, Lung 162: 99-113 (1984)). The experimental procedures for animal preparation, pressure-volume curve registration and lung lavage are adapted from those described by Ikegami et al., Pediatr. Res. 11: 178-182 (1977) and Pediatr. Res. 13: 777-780 (1979, and Bermel et al, Lung 162: 99-113 (1984). Male Sprague Dawley rats (200-250 g) are anesthetized with sodium pentobarbital and exsanguinated. The trachea is cannulated and the thoracic organs are removed en bloc. After removal of the adventitious tissue, the trachea and lungs (~2 g) are suspended in saline (0.9%), placed in a vacuum chamber, and degassed according to the procedure of […] et al. the degassed lungs are suspended in saline in a 37° C., jacketed reservoir and the tracheal cannula is connected both to a water manometer and a glass syringe by a T-tube. The glass syringe is placed in an infusion/withdrawal pump. […] The total volume of air infused is recorded as the total lung capacity (TLC) which is generally 14-15 ml. The lungs are then deflated at a rate of 2.5 ml/min until zero pressure is attained. During deflation, pressure is read from the water manometer at 1 cm intervals and recorded. […] After degassing and equilibration, the lungs are rendered surfactant-deficient by repeated lavage with 5 ml/g lavage buffer (0.9% NaCl, 10 mM HEPES, pH 7.4). […] At this point, the lungs are considered surfactant-deficient. […] The mixture is then vortexed again, degassed if foamy, and 2 ml of the test mixture are introduced into and withdrawn from the lungs four times by syringe. When the test mixture is reintroduced to the lungs for the fifth time, it is allowed to remain in the lungs. This procedure is adopted to encourage even distribution of the material throughout the lung. The lungs are degassed, allowed to equilibrate at 37° C. for 5 min, and a P-V measurement is performed. Lungs are studied while supported in saline at 37° C. as opposed to ambient temperature since the physical characteristics of the surfactants may be dependent upon temperature. […] Data are presented in terms of the % TLC. […] Comparisons are based on per cent restoration=([…] ×100/(PC5 (sufficient) -PC5(deficient)) and made by one-way analysis of variance using the general linear models procedure with specific contrasts of the means (SAS Institute Inc., Cary, N.C.). […] The restoration based upon the PC5 values was used to compare the test mixtures.

As for `CCCCCCCCCCCCCCCC(=O)OC[C@H](COP(=O)([O-])OCC[N+](C)(C)C)OC(=O)CCCCCCCCCCCCCCC` [DPPC, L-α-dipalmitoylphosphatidylcholine], the “PC5 (% TLC): per cent of total lung capacity at 5 cm H2O pressure, deflation limb of P-V curve” value came out at 13 ± 1 % TLC; the “PC10 (% TLC): per cent of total lung capacity at 10 cm H2O pressure, deflation limb of P-V curve” value is 31 ± 2 % TLC; the “RESTORATION % (per cent restoration based on PC5 values)” value was found to be 11 ± 8%. Also, where the note is “DPPC alone, without peptide”, the “effect on the pressure-volume (P-V) curves of the lavaged lung” value is “no significant effect”.
As to “HBB-Aoc-Glu-Trp-Ala-Lys-NH2 [SEQ ID NO: 5]”, the “PC5 (% TLC): per cent of total lung capacity at 5 cm H2O pressure, deflation limb of P-V curve” value was found to be 55 ± 4 % TLC; the “PC10 (% TLC): per cent of total lung capacity at 10 cm H2O pressure, deflation limb of P-V curve” value was found to be 77 ± 2 % TLC; the “RESTORATION % (per cent restoration based on PC5 values)” value is given as 81 ± 7%.
